Experimental findings from article doi:10.1101/2022.11.21.517375v1, “Fragment-Based Hit Discovery via Unsupervised Learning of Fragment-Protein Complexes” (biorxiv, 2022) are described below.

The target in test [1] is T1, SARS-CoV-2 nsp3-Mac1 (HTRF assay) (Severe acute respiratory syndrome coronavirus 2, UniProt P0DTD1).
T1 construct: gene rep
Briefly: HTRF displacement of ADP-ribose-conjugated biotin peptide. The class given is binding.

In test [2] the target is T2, SARS-CoV-2 main protease (Mpro) (Severe acute respiratory syndrome coronavirus 2, UniProt P0DTD1).
T2 construct: gene rep
Briefly: fluorescence protease assay, fluorogenic peptide, dose response. The class given is biochemical.

The target of a further test is T3, Mac1 (P43 crystals) (Severe acute respiratory syndrome coronavirus 2, UniProt P0DTD1).
T3 construct: gene rep
Description: X-ray crystallography, crystal soaking, PanDDA. The class given is binding. Conditions: active site; P43 crystals soaked at 10 or 20 mM for 2-[…].

Read-outs that look alike come from different tables or passages of the source.

Regarding `CCC(CNc1ncnc2[nH]cnc12)NC(=O)CCC1CCCCC1` (racemic) [Z5551425673], in test [1] (read-out: % inhibition at 250 μM), the inhibition at 250 µM is 30.1%.

Regarding `COc1ccc2c(C(=O)NNc3nc4ccccc4[nH]3)cc(=O)[nH]c2c1` [ALP-UNI-ed5cdfd2-1], in test [2], inhibition was half-maximal at 19.4 µM (IC50). On to `O=C(NNc1nc2ccccc2[nH]1)c1cc(=O)[nH]c2ccccc12` [WIL-UNI-d4749f31-37], for which the IC50 in test [2] (pH 7.3, 20 mM HEPES, 1.0 mM TCEP, 50 mM NaCl, 5 nM Mpro, 37 nM substrate, 15 min pre-incubation, room temperature, read-out: IC50) amounted to 25.8 µM. For the molecule `CCNc1nc2c(cnn2C)c(=O)[nH]1` [Z1102995175], in test [1] (pH 7.0, 25 mM HEPES, 20 mM NaCl, […] protein, 400 nM peptide, room temperature), the “% inhibition at 250 μM” value came out at 24.8%. On to `CC[C@@H](CNc1ncnc2[nH]cnc12)NC(=O)CCC1CCCCC1` [Z5551425673 (S-stereoisomer)], for which the “X-ray crystallography, crystal soaking, PanDDA” value on Mac1 (P43 crystals) is on record as “structure of Z5551425673 (as the S-stereoisomer) bound to the active site”.

A word on the inhibition: it is the drop in the measured response relative to a control, in per cent. Broadly, the IC50 is the point on the concentration scale where inhibition reaches its midpoint. A word on the % inhibition: it is how much of the control response was suppressed. A lower % inhibition goes with little suppression.
